Columns and labels:
PI3Kα = biological target: T1, PI3Kα (Homo sapiens, UniProt P42336); experiment: competitive fluorescence polarization kinase activity assay, PI3Kα; type: biochemical; conditions: fluorescence polarization kinase kit
T1 construct: purchased Perkin–Elmer
Description: (§1) Initially, we directly tested the inhibition potency of the synthesized compounds on PI3K by using competitive fluorescence polarization kinase kits, as mentioned in previous investigations. […] According to the significance and research maturity of the isoforms as referenced, the PI3Kα and PI3Kγ isoforms were preliminarily included here.
(§2) The competitive fluorescence polarization kinase activity assay was used to test the inhibition potency on PI3K, as mentioned in previous investigations. In general, following the instruction of the Kit (Perkin–Elmer, Waltham, MA, USA), the 10 μL scale of PI3K activity reaction was conducted with the substrate diC8-PI(4,5)P2 in a solution containing 2.5 mM MgCl2, 5 mM HEPES, […] and 10 mM DTT at pH 7.0. Into the 10 μL reaction wells with 50 ng enzyme and […], different concentrations of the tested compounds were added, respectively. The mixture was incubated at room temperature for 3 h, and the reactions were then quenched. Afterwards, the phosphoinositide binding protein and the fluorescent dye-labeled phosphoinositide tracer were added in sequence. In the dark environment in 384-well black nonbinding plates (Corning, Corning, NY, USA), the further incubation lasted for 1 h. With appropriate filters, the polarization values of the corresponding dye were recorded to calculate the enzymatic activity of PI3K in this reacting procedure. This assay was universal for evaluating the activity of different PI3K isoforms.

PI3Kγ = biological target: T2, PI3Kγ (Homo sapiens, UniProt P48736); experiment: competitive fluorescence polarization kinase activity assay, PI3Kγ; type: biochemical; conditions: for IC50: fluorescence polarization kinase kit; for selectivity index: ratio of the IC50 values for PI3Kα and PI3Kγ
T2 construct: purchased Perkin–Elmer
T2 sequence (P48736 whole entry, species assumed): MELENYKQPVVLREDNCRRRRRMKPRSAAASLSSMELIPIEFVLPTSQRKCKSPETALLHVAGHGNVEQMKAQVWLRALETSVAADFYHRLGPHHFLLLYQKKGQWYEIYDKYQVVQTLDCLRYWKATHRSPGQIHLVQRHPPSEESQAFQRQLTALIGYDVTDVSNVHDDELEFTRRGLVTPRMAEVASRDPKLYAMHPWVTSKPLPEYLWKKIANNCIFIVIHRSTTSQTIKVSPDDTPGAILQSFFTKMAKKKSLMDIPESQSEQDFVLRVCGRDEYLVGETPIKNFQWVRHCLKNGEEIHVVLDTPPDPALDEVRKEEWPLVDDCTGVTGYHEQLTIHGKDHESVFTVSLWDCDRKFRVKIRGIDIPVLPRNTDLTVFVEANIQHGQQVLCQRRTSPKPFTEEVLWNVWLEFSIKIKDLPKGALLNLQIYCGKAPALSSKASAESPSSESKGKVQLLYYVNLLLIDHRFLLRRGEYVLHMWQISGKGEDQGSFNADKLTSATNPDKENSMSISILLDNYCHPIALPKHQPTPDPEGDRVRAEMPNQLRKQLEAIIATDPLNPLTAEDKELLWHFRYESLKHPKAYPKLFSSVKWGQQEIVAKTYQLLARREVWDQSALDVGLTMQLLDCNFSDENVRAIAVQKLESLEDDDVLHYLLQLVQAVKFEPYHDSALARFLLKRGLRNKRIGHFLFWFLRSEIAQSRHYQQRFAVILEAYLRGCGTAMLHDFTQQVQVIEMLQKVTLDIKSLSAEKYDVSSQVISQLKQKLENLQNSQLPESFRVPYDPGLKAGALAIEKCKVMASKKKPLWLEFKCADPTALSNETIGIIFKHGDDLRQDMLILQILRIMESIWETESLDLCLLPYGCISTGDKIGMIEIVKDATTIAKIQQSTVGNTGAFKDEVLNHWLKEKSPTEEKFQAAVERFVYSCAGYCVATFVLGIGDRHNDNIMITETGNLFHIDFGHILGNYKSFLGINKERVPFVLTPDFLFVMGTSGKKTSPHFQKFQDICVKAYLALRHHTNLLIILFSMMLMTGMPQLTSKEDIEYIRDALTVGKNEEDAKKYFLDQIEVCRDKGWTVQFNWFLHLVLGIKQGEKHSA
Description: as §1, §2

[1] = cytotoxicity, MTT, L02 cells; type: cell-based; conditions: human, L02 cells (human normal hepatocyte line)
Method: (§3) In this section, the anti-proliferation activity of the synthesized compounds 3a–3t was evaluated. Herein, HeLa (human epithelial cervical cancer cell line), HepG2 (human hepatoellular carcinoma cell line) and L02 (human normal hepatocyte line) cells were used. According to the affection on L02 cells, most of the tested compounds were low-toxic. […] Basically, many of the compounds in this series could inhibit the growth of HeLa and HepG2 cells effectively. The anti-proliferation inhibitory activity and the enzymatic inhibition potency indicated the consistent tendencies; the SAR of the observed anti-proliferation activity was also similar to that of the enzymatic inhibition, especially that of PI3Kγ inhibition; thus, the cellular inhibition might be caused by the effect on PI3K. […] Thus, HepG2 cells were selected to conduct further investigations at the protein level.
(§4) In this section, the cells included HeLa (human epithelial cervical cancer cell line), HepG2 (human hepatocellular cancer cell line) and L02 (human normal hepatocyte line) to evaluate the anti-proliferation activity of the synthesized compounds. The cells were cultured in Dulbecco’s modified eagle medium (DMEM, Hyclone) with the addition of 10% fetal bovine serum (FBS, BI), 2 mmol/L L-glutamine, 100 units/mL penicillin-streptomycin (Sigma-Aldrich, Saint Louis, MO, USA), […] (Hyclone, Logan, UT, USA). The environment was 5% CO2 contained atmosphere at 37 °C. The tests of anti-proliferative activity were conducted under a standard method with the typical dye 3-(4,5-dimethylthiazol-2-yl)-2,5-diphenyltetrazolium bromide (MTT) in triplicate. The LX300 Epson Diagnostic micro-plate reader (Nagano, Japan) was used to record the absorbance at 570 nm (OD570).

[2] = test system: HeLa (human epithelial cervical cancer cell line) cells; experiment: anti-proliferation assay, MTT, HeLa cells; type: cell-based
Method: as §3, §4

[3] = test system: HepG2 (human hepatocellular cancer cell line) cells; experiment: anti-proliferation assay, MTT, HepG2 cells; type: cell-based; conditions: read-out: GI50 HepG2γ
Method: as §3, §4

T1 sequence (P42336 whole entry, species assumed): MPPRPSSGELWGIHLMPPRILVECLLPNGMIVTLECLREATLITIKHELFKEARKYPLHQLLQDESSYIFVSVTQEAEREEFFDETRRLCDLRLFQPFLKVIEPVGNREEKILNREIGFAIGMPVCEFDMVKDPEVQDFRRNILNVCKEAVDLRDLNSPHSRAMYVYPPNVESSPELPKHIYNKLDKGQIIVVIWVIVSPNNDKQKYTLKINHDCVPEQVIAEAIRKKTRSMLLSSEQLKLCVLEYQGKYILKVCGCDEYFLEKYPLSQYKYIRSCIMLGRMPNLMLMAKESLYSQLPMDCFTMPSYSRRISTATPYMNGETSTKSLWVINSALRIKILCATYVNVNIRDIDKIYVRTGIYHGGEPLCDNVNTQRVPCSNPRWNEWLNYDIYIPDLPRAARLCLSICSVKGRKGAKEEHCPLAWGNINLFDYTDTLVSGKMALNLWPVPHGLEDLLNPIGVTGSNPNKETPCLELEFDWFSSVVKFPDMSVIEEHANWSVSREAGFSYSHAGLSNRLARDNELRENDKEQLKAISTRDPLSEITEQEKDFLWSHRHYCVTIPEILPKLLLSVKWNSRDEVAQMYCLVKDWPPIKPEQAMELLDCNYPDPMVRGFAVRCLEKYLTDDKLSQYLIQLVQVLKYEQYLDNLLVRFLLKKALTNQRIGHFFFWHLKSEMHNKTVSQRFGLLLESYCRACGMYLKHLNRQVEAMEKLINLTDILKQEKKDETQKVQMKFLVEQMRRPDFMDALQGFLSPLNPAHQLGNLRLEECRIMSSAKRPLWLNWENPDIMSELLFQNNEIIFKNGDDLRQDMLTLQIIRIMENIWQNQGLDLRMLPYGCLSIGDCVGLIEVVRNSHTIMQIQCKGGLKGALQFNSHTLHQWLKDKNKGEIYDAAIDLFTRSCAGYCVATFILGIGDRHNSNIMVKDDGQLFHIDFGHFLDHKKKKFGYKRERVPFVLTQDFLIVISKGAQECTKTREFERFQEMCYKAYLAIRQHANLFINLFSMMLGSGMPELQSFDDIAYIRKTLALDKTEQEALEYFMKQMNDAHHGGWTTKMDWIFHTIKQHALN
T1 sequence (P27986 whole entry partner, species assumed): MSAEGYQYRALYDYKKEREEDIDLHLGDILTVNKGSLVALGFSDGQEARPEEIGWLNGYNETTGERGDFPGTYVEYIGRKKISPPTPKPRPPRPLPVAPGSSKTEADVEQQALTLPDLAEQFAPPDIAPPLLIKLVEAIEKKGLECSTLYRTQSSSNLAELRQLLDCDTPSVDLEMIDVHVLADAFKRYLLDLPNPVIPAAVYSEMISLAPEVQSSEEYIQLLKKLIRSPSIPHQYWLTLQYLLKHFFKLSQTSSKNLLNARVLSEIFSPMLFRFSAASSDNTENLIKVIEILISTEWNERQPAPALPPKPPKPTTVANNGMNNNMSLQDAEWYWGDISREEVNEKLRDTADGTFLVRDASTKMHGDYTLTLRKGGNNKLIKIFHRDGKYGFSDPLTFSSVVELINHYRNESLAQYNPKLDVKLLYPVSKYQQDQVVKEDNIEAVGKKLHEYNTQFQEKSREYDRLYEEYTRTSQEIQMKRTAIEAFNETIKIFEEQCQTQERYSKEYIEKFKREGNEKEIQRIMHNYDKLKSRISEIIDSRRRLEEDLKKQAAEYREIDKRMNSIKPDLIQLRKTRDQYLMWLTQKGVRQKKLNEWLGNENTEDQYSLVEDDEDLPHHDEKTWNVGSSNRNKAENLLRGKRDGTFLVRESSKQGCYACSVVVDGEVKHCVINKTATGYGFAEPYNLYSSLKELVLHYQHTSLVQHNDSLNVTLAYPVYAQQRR

Row | SMILES | IC50 (PI3Kα) [µM] | IC50 (PI3Kγ) [µM] | GI50 [2] [µM] | GI50 [3] [µM] | melting point [°C] | selectivity index (PI3Kγ) | CC50 [1] [µM]
1 | COc1ccc(C(=O)N2N=C(c3ccc(SC)cc3)CC2c2cccs2)cc1OC (centres unmarked) [3h, (3-(4-((λ^1-Sulfanyl)-λ^5-methyl)phenyl)-5-(thiophen-2-yl)-4,5-dihydro-1H-pyrazol-1-yl) (3,4-dimethoxyphenyl)methanone] | 64.4 ± 3.6 | 18.1 ± 1.7 | 61.3 ± 2.3 | 53.3 ± 1.9 | 63 to 65 | – | 180 ± 4.6
2 | COc1ccc(C2=NN(C(=O)c3ccc(OC)c(OC)c3)C(c3cccs3)C2)cc1 (centres unmarked) [3f, (3,4-Dimethoxyphenyl)(3-(4-methoxyphenyl)-5-(thiophen-2-yl)-4,5-dihydro-1H-pyrazol-1-yl)methanone] | 26.6 ± 1.01 | 0.57 ± 0.044 | 23.7 ± 1.2 | 15.1 ± 0.42 | 53 to 55 | 46.7 | 112 ± 8.3
3 | COc1ccc(C(=O)N2N=C(c3ccc(Br)cc3)CC2c2cccs2)cc1OC (centres unmarked) [3l, (3-(4-Bromophenyl)-5-(thiophen-2-yl)-4,5-dihydro-1H-pyrazol-1-yl)(3,4-dimethoxyphenyl)methanone] | 17.1 ± 0.58 | 5.11 ± 0.083 | 20.1 ± 1.7 | 15.5 ± 0.87 | 71 to 73 | – | 86.6 ± 3.5
4 | COc1ccc(C(=O)N2N=C(c3cccc(Br)c3)CC2c2cccs2)cc1OC (centres unmarked) [3d, (3-(3-Bromophenyl)-5-(thiophen-2-yl)-4,5-dihydro-1H-pyrazol-1-yl)(3,4-dimethoxyphenyl)methanone] | 78.7 ± 4 | 2.22 ± 0.072 | 57.1 ± 2.6 | 42.6 ± 1.9 | 124 to 126 | – | 120 ± 4.7
5 | COc1ccc(C(=O)N2N=C(c3ccc(OCc4ccccc4)cc3)CC2c2cccs2)cc1OC (centres unmarked) [3g, (3-(4-(Benzyloxy)phenyl)-5-(thiophen-2-yl)-4,5-dihydro-1H-pyrazol-1-yl)(3,4-dimethoxyphenyl)methanone] | 0.92 ± 0.056 | 26.9 ± 1.4 | 31.6 ± 0.9 | 31.6 ± 1.4 | 60 to 62 | – | 104 ± 5.4
6 | COc1ccc(C(=O)N2N=C(c3ccc(-c4ccccc4)cc3)CC2c2cccs2)cc1OC (centres unmarked) [3j, (3-([1,1’-Biphenyl]-4-yl)-5-(thiophen-2-yl)-4,5-dihydro-1H-pyrazol-1-yl)(3,4-dimethoxyphenyl)methanone] | 3.92 ± 0.064 | > 100 | 75.7 ± 2.9 | 50.6 ± 1 | 154 to 156 | – | 196 ± 10
7 | COc1ccc(C(=O)N2N=C(c3ccccc3)CC2c2cccs2)cc1OC (centres unmarked) [3a, (3,4-Dimethoxyphenyl)(3-phenyl-5-(thiophen-2-yl)-4,5-dihydro-1H-pyrazol-1-yl)methanone] | > 100 | 7.48 ± 0.22 | 109 ± 5.8 | 61.1 ± 3.2 | 141 to 143 | – | 174 ± 10
8 | COc1ccc(C(=O)N2N=C(c3cccc([N+](=O)[O-])c3)CC2c2cccs2)cc1OC (centres unmarked) [3e, (3,4-Dimethoxyphenyl)(3-(3-nitrophenyl)-5-(thiophen-2-yl)-4,5-dihydro-1H-pyrazol-1-yl)methanone] | 2.08 ± 0.099 | 1.12 ± 0.081 | 5.9 ± 0.2 | 5.51 ± 0.2 | 76 to 78 | – | 58.4 ± 2.6
9 | COc1ccc(C(=O)N2N=C(c3ccccc3F)CC2c2cccs2)cc1OC (centres unmarked) [3b, (3,4-Dimethoxyphenyl)(3-(2-fluorophenyl)-5-(thiophen-2-yl)-4,5-dihydro-1H-pyrazol-1-yl)methanone] | > 100 | 4.43 ± 0.2 | 77.9 ± 3.9 | 50.2 ± 1.6 | 118 to 120 | – | 152 ± 9.5
10 | COc1ccc(C(=O)N2N=C(c3ccc(-c4ccc(Br)cc4)cc3)CC2c2cccs2)cc1OC (centres unmarked) [3k, (3-(4’-Bromo-[1,1’-biphenyl]-4-yl)-5-(thiophen-2-yl)-4,5-dihydro-1H-pyrazol-1-yl)(3,4-dimethoxyphenyl)methanone] | 1.1 ± 0.061 | 42.7 ± 2.6 | 44.6 ± 2.1 | 46.6 ± 1.3 | 75 to 77 | – | 178 ± 8.7
11 | COc1ccc(C(=O)N2N=C(c3cccc(F)c3)CC2c2cccs2)cc1OC (centres unmarked) [3c, (3,4-Dimethoxyphenyl)(3-(3-fluorophenyl)-5-(thiophen-2-yl)-4,5-dihydro-1H-pyrazol-1-yl)methanone] | 30.9 ± 1.3 | 4.21 ± 0.072 | 26.3 ± 1.7 | 20.4 ± 2 | 50 to 51 | – | 94.5 ± 4.3

The next lines start with results.

Row | IC50 (PI3Kα) [µM] | IC50 (PI3Kγ) [µM] | GI50 [2] [µM] | GI50 [3] [µM] | melting point [°C] | selectivity index (PI3Kγ) | SMILES | CC50 [1] [µM]
12 | 8.81 ± 0.17 | 9.91 ± 0.26 | 18.1 ± 0.85 | 16.9 ± 0.36 | 72 to 74 | – | COc1ccc(C(=O)N2N=C(c3ccc(OC)c4ccccc34)CC2c2cccs2)cc1OC (centres unmarked) [3o, (3,4-Dimethoxyphenyl)(3-(4-methoxynaphthalen-1-yl)-5-(thiophen-2-yl)-4,5-dihydro-1H-pyrazol-1-yl)methanone] | 137 ± 4.7
13 | – | – | 21.1 ± 2 | 26.5 ± 1.9 | – | – | O=c1cc(N2CCOCC2)oc2c(-c3ccccc3)cccc12 [LY294002, reference compound] | 51.3 ± 1.4
14 | 0.56 ± 0.045 | 3.76 ± 0.19 | 6.81 ± 0.24 | 6.31 ± 0.54 | 74 to 76 | – | COc1ccc2cc(C3=NN(C(=O)c4ccc(OC)c(OC)c4)C(c4cccs4)C3)ccc2c1 (centres unmarked) [3p, (3-(6-((λ1-Oxidanyl)-λ^5-methyl)naphthalen-2-yl)-5-(thiophen-2-yl)-4,5-dihydro-1H-pyrazol-1-yl)(3,4-dimethoxyphenyl)methanone] | 67.1 ± 3.9
15 | 5.24 ± 0.13 | 0.43 ± 0.036 | 4.72 ± 0.12 | 4.22 ± 0.13 | 127 to 128 | 12.2 | COc1ccc(C(=O)N2N=C(c3ccc(OC)c(OC)c3)CC2c2cccs2)cc1OC (centres unmarked) [3q, (3,4-Dimethoxyphenyl)(3-(3,4-dimethoxyphenyl)-5-(thiophen-2-yl)-4,5-dihydro-1H-pyrazol-1-yl)methanone] | 41.3 ± 2.6
16 | > 100 | 9.15 ± 0.14 | 124 ± 9.7 | 110 ± 8.1 | 77 to 79 | – | COc1ccc(C(=O)N2N=C(c3ccc(Br)cn3)CC2c2cccs2)cc1OC (centres unmarked) [3t, (3-(5-Bromopyridin-2-yl)-5-(thiophen-2-yl)-4,5-dihydro-1H-pyrazol-1-yl)(3,4-dimethoxyphenyl)methanone] | > 300
17 | 12 ± 1.1 | 1.79 ± 0.049 | 11.1 ± 1.2 | 8.85 ± 0.31 | 149 to 151 | – | COc1ccc(C(=O)N2N=C(c3ccc4ccccc4c3)CC2c2cccs2)cc1OC (centres unmarked) [3n, (3,4-Dimethoxyphenyl)(3-(naphthalen-2-yl)-5-(thiophen-2-yl)-4,5-dihydro-1H-pyrazol-1-yl)methanone] | 62.6 ± 2.6
18 | 75.6 ± 2.4 | 2.52 ± 0.055 | 57.9 ± 3.6 | 40.1 ± 1.4 | 69 to 71 | – | COc1ccc(C(=O)N2N=C(c3ccc(I)cc3)CC2c2cccs2)cc1OC (centres unmarked) [3m, (3,4-Dimethoxyphenyl)(3-(4-iodophenyl)-5-(thiophen-2-yl)-4,5-dihydro-1H-pyrazol-1-yl)methanone] | 141 ± 5.6

— PMC9027920, “Development of New Thiophene-Containing Triaryl Pyrazoline Derivatives as PI3Kγ Inhibitors” (Molecules, 2022)
